Measured values published in patent publication US5591741A, “Fungicidal spiroheterocyclic derivatives” (American Cyanamid Company, priority 1993, dated 1997).

Key:
Rhizoctonia solani = test: Activity against Rhizoctonia in-vitro (RSI); type: cell-based; details: 10 ppm, 10 days, 20° C., mycelial growth
Outline: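 Compound at a final 10 ppm (acetone vehicle) in half-strength PDB, inoculated with 5×10^4 fragments/ml of shaken-culture R. solani mycelium. After incubation at 20° C for 10 days, growth scored as a rating versus untreated or diluent-treated controls.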

Alternaria solani = test: Activity against tomato early blight (AS); type: in vivo; details: Table VI; tomato seedlings, contact prophylactic foliar spray, 4 days
Outline: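 Plants were challenged with A. solani conidia (10^4 spores/ml) 24 h after a protective foliar spray of compound in 50:50 acetone/water plus 0.04% Tween 20. Held humid at 21° C for 4 days, then percent leaf area with lesions was scored as a rating relative to controls.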

[1] = system: Pseudocercosporella herpotrichoides; test: Activity against wheat eyespot in-vitro (PHI); type: cell-based; details: 10 ppm, 10 days, 20° C., mycelial growth
Outline: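 Mycelial growth was scored after 10 days at 20 °C against untreated or diluent controls. The broth was half-strength potato dextrose, holding 10 ppm test compound (from acetone) and 5×10^4 fragments/ml of the eyespot fungus.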

Botrytis cinerea = test: Direct protectant activity against broad bean grey mould (BCB); type: in vivo; details: direct protectant foliar spray, 600 ppm, 4 days
Outline: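 Protectant foliar test: lesion coverage assessed 4 days after inoculation and rated relative to untreated or diluent-sprayed plants. Compound applied at 600 ppm to cv The Sutton leaves 24 h before 10^6 conidia/ml suspension; incubation at 22 °C in high humidity.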

Phytophthora infestans = type: in vivo; details: tomato, direct protectant foliar spray
Plasmopara viticola = test: Antisporulant activity against vine downy mildew (PVA); type: in vivo; details: vine leaves, antisporulant foliar spray, 600 ppm, 750 l/ha
Outline: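 Cabernet Sauvignon vines (~8 cm) inoculated on lower leaf surfaces with 5×10^4 zoosporangia/ml, held 24 h at 21° C high humidity then 24 h glasshouse. Infected leaves sprayed underside with 600 ppm compound in 1:1 water/acetone, 0.04% Tween 20, 750 l/ha; 96 h glasshouse, 24 h humidity. Sporulating leaf area rated versus control.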

Pyricularia oryzae = type: in vivo; details: rice seedlings, direct therapeutic foliar spray, 600 ppm, 4-5 days
[2] = system: Erysiphe graminis f.sp. hordei; test: Activity against barley powdery mildew, direct therapeutic (EGT); type: in vivo; details: direct therapeutic foliar spray, 600 ppm, up to 7 days
Outline: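 A curative spray at 600 ppm was applied to single-leaf Golden Promise barley inoculated with powdery mildew conidia the previous day. After up to 7 days at 18 °C and 40% humidity, disease control was rated from percent leaf area sporulating relative to untreated or diluent-sprayed controls.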

[3] = system: Erysiphe graminis f.sp. hordei; test: Direct protectant activity against barley powdery mildew (EGP); type: in vivo; details: direct protectant foliar spray, 8 days
Outline: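 Rating reflects percentage of leaf area with sporulation compared with untreated or diluent-sprayed controls. Protectant spray was applied to single-leaf barley (cv Golden Promise) 24 h before conidia inoculation. Plants were kept at 18 °C and 40% RH throughout, with 8 days of disease development.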

Venturia inaequalis = test: Activity against apple scab in-vitro (VII); type: cell-based; details: 10 ppm, 10 days, 20° C., mycelial growth
Outline: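 V. inaequalis propagules (5×10^4/ml, malt agar-grown) were exposed in half-strength PDB to 10 ppm final test compound delivered in acetone. Growth was scored after incubation for 10 days at 20° C, as a rating relative to untreated or diluent-sprayed controls.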

Leptosphaeria nodorum = test: Activity against wheat leafspot (LN); type: in vivo; details: direct therapeutic foliar spray, 600 ppm, 6-8 days
Outline: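 Therapeutic foliar spray: compound at 600 ppm applied to single-leaf wheat (cv Norman) 24 h after inoculation with 1.5×10^6 conidia/ml. Disease control scored after 6-8 days at 22° C and 70% humidity as lesions per leaf versus untreated or diluent-sprayed controls.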

| Structure (SMILES) | disease control rating RSI (Rhizoctonia solani) | disease control rating AS (Alternaria solani) | disease control rating PHI [1] | disease control rating BCB (Botrytis cinerea) | disease control rating PIP (Phytophthora infestans) | disease control rating PVA (Plasmopara viticola) | disease control rating PO (Pyricularia oryzae) | disease control rating EGT [2] | disease control rating EGP [3] | disease control rating VII (Venturia inaequalis) | disease control rating LN (Leptosphaeria nodorum) |
| --- | --- | --- | --- | --- | --- | --- | --- | --- | --- | --- | --- |
| CCCCCCCCCCCCCCNC1COC2(CCC(C(C)(C)C)CC2)C1 (stereo not shown) [Compound 44] | 0 (less than 50% disease control) | 0 (less than 50% disease control) | 0 (less than 50% disease control) | 0 (less than 50% disease control) | 0 (less than 50% disease control) | 0 (less than 50% disease control) | 0 (less than 50% disease control) | 2 (greater than 80% disease control) | 2 (greater than 80% disease control) | 0 (less than 50% disease control) | 0 (less than 50% disease control) |
| CCCCCCCCCCCCCCCCNC1COC2(CCC(C(C)(C)C)CC2)C1 (stereo not shown) [Compound 45] | 0 (less than 50% disease control) | 0 (less than 50% disease control) | 0 (less than 50% disease control) | 0 (less than 50% disease control) | 0 (less than 50% disease control) | 0 (less than 50% disease control) | 0 (less than 50% disease control) | 2 (greater than 80% disease control) | 2 (greater than 80% disease control) | 0 (less than 50% disease control) | 0 (less than 50% disease control) |
| CCCCCCCCCCCCCCCCCCNC1COC2(CCC(C(C)(C)C)CC2)C1 (stereo not shown) [Compound 46] | 0 (less than 50% disease control) | 0 (less than 50% disease control) | 0 (less than 50% disease control) | 0 (less than 50% disease control) | 0 (less than 50% disease control) | 0 (less than 50% disease control) | 0 (less than 50% disease control) | 2 (greater than 80% disease control) | 2 (greater than 80% disease control) | 0 (less than 50% disease control) | 0 (less than 50% disease control) |
| CC(C)(C)C1CCC2(CC1)CC(NCc1cccnc1)CO2 (stereo not shown) [Compound 47] | 0 (less than 50% disease control) | 2 (greater than 80% disease control) | 0 (less than 50% disease control) | 0 (less than 50% disease control) | 0 (less than 50% disease control) | 0 (less than 50% disease control) | 0 (less than 50% disease control) | 2 (greater than 80% disease control) | 2 (greater than 80% disease control) | 1 (about 50-80% disease control) | 0 (less than 50% disease control) |
| CCCCN(Cc1cccnc1)C1COC2(CCC(C(C)(C)C)CC2)C1 (stereo not shown) [Compound 48] | 0 (less than 50% disease control) | 2 (greater than 80% disease control) | 0 (less than 50% disease control) | 0 (less than 50% disease control) | 0 (less than 50% disease control) | 0 (less than 50% disease control) | 0 (less than 50% disease control) | 2 (greater than 80% disease control) | 2 (greater than 80% disease control) | 1 (about 50-80% disease control) | 0 (less than 50% disease control) |
| CCCCCNC1COC2(CCC(C(C)(C)CC)CC2)C1 (stereo not shown) [Compound 49] | 1 (about 50-80% disease control) | 0 (less than 50% disease control) | 2 (greater than 80% disease control) | 0 (less than 50% disease control) | 2 (greater than 80% disease control) | 0 (less than 50% disease control) | 0 (less than 50% disease control) | 2 (greater than 80% disease control) | 2 (greater than 80% disease control) | 1 (about 50-80% disease control) | 2 (greater than 80% disease control) |
| CCCCCN(CCCCC)C1COC2(CCC(C(C)(C)CC)CC2)C1 (stereo not shown) [Compound 50] | 0 (less than 50% disease control) | 0 (less than 50% disease control) | 0 (less than 50% disease control) | 0 (less than 50% disease control) | 0 (less than 50% disease control) | 0 (less than 50% disease control) | 0 (less than 50% disease control) | 2 (greater than 80% disease control) | 2 (greater than 80% disease control) | 1 (about 50-80% disease control) | 0 (less than 50% disease control) |
| CCC(C)(C)C1CCC2(CC1)CC(NC1CCCCC1)CO2 (stereo not shown) [Compound 51] | 1 (about 50-80% disease control) | 2 (greater than 80% disease control) | 1 (about 50-80% disease control) | 0 (less than 50% disease control) | 2 (greater than 80% disease control) | 0 (less than 50% disease control) | 0 (less than 50% disease control) | 2 (greater than 80% disease control) | 2 (greater than 80% disease control) | 1 (about 50-80% disease control) | 0 (less than 50% disease control) |
